According to patent US9895381B2, “Vitamin D receptor agonists to treat diseases involving CXCL12 activity” (Salk Institute for Biological Studies, priority 2013, dated 2018):

Assays:
primary human CAPSCs = assay: ACTA2 expression by qRT-PCR; assay type: cell-based; settings: 100 nM Cal, 48 h; samples responding / samples tested
Procedure: Total RNA was purified following Trizol extraction according to the manufacturer's instructions. cDNA synthesis was carried out using iScript reagent (Bio-Rad), and qRT-PCR performed using SsoAdvanced SYBR Green reagent on the CFX384 detection system (Bio-Rad). Relative expression values were determined using the standard curve method. Primer sequences can be found in Table 2.

wild-type C57BL6/J mice = assay: Cerulein-induced chronic pancreatitis model; assay type: in vivo, mouse; settings: for inflammation and fibrosis: cerulein plus 40 μg/kg calcipotriol i.p. vs cerulein alone
Procedure: Tissues were embedded in O.C.T. and frozen sections were fixed in ice-cold methanol at −20° C. for 20 min. Sections were blocked in PBS+0.2% BSA+0.05% Triton X-100 (blocking solution) for 1 h at room temperature. Primary antibody dilutions in blocking solution were as follows: anti-phospho-STAT3(Tyr705), 1:100 (Cell Signaling Technology); anti-Collagen I, 1:500 (Abcam), anti-GFAP, 1:100 (Abcam); anti-CD45, 1:100 (BD Pharmingen). Primary antibody incubations were performed in a humidified chamber at 4° C. overnight. Sections were washed 3 times with PBS+0.05% Triton X-100, then incubated in secondary antibodies for 1 h at room temperature, protected from light. Secondary antibodies used included Alexa Fluor 594 goat anti-rabbit IgG, Alexa Fluor 488 goat anti-rabbit IgG, Alexa Fluor 594 goat anti-rat IgG, and Alexa Fluor 488 goat anti-mouse IgG (Molecular Probes) and were used at 1:250 in blocking solution. Sections were washed 3 times with PBS and mounted using Vectastain mounting medium with or without DAPI. Fluorescence was visualized on a Leica DM5000B fluorescent microscope and quantified using ImageJ. Chronic pancreatitis was induced in wild-type C57BL6/J mice beginning at 8 weeks of age. Ten animals per cohort received intraperitoneal injections of saline, 50 μg/kg cerulein, or cerulein plus 40 μg/kg calcipotriol. Cerulein injections were administered as 6 hourly injections 2 times per week for 12 weeks and analyzed 1 week after final cerulein injection, adapted from previous studies (Sah et al., 2013; Treiber et al., 2011; Yoo et al., 2005). Calcipotriol injections were administered 3 times per week for the duration of the chronic pancreatitis study. For acute pancreatitis studies, 8-week-old wild-type or Vdr−/− mice received 6 hourly intraperitoneal injections of 50 μg/kg cerulein on days 1, 3, and 5, with or without single daily injections of 40 μg/kg calcipotriol. Mice were sacrificed on day 6. At necropsy, pancreata were harvested and digested for PSC isolation as described above, or prepared for histological analysis as described herein. Histological sections were cut from formalin-fixed tissues at 7 μm thickness Sirius Red/Fast Green staining (Chondrex) was performed per manufacturer's instructions. Images were obtained and quantification of Sirius Red-positive area performed using Nuance 3.0.1.2 software. Six independent fields were captured per sample.

Compound: C=C1/C(=C\C=C2/CCC[C@]3(C)[C@@H]([C@H](C)/C=C/[C@@H](O)C4CC4)CC[C@@H]23)C[C@@H](O)C[C@@H]1O [Cal, 1α,24-(OH)2-24-cyclopropyl-D3]
- decreased expression of αSMA (ACTA2), patient samples (primary human CAPSCs): 24/27
- inflammation and fibrosis (wild-type C57BL6/J mice): attenuated inflammation and fibrosis
- inflammation and fibrosis (wild-type C57BL6/J mice; listed as calcipotriol): markedly reduced inflammation and fibrosis
- Acta2 expression in isolated PSCs (wild-type C57BL6/J mice; cerulein+Cal 12 weeks): trended downwards
- phospho-Stat3 induction (wild-type C57BL6/J mice; cerulein+Cal 12 weeks): reduced induction of phospho-Stat3
- expression of activation and cancer signature genes in isolated PSCs (wild-type C57BL6/J mice; cerulein+Cal 12 weeks vs controls): decreased
